Measurements as given in US20110263668A1, “Beta 3-Adrenoreceptor Agonists for the Treatment of Cardiac Hypertrophy and Heart Failure” (THE JOHNS HOPKINS UNIVERSITY, priority 2009, published 2011).

System: β3−/− and WT mice with transverse aortic constriction (TAC)
Assay: Echocardiography in β3−/− and WT mice after TAC with BH4 in the diet
Type: in vivo, mouse
Conditions: BH4 200 mg/kg/day in soft diet
Method: Experimental Model. Baseline echocardiography was performed on 8-week, 4-month, and 14-18 month-old homozygous β3^−/− mice (n=57 total, original breeding pairs kindly provided by Dr. Bradford Lowell (Klein et al. (1999)) and age-matched FVB background WT controls (n=13, Jackson Laboratories, Bar Harbor, Me.). Transverse aortic constriction (TAC) was performed on 8-week-old male β3^−/− (n=21) and age-matched male WT controls (n=24) as previously described (Takimoto et al. (2005)). Briefly, after anesthesia with isoflurane (2%), the chest was opened through a small thoracic window between ribs 2 and 4, and a 25 G needle placed on the transverse aorta. This needle size was chosen to elicit a milder response as initial studies using a standard TAC model (27 G needle) led to pulmonary edema and 100% early mortality in β3^−/− mice. The band was secured using a 7.0 prolene suture, the needle was then removed and the chest closed. Twelve animals per strain underwent sham surgery. To measure pressure changes after TAC, pressure volume loops were obtained using a Millar micromanometer catheter as previously described (Barouch et al. (2002)). Animals were sacrificed 3 or 9 weeks after TAC and myocardial tissue preserved in 10% formalin or snap-frozen in liquid nitrogen for subsequent analysis. To determine whether there were any differences in proximal pressures after TAC between strains, a 1.4 F pressure catheter (Millar Instruments, Houston, Tex.) was advanced into the ascending aorta from the LV, and pressures recorded before and after TAC. […] In vivo cardiac geometry and function were serially assessed by transthoracic echocardiography (Acuson Sequoia C256, 13 MHz transducer; Siemens) in conscious mice. M-mode LV end-systolic and end-diastolic cross-sectional diameter (LVESD, LVEDD), and the mean of septal and posterior wall thicknesses were determined from an average of 3-5 cardiac cycles. LV fractional shortening (% FS) and LV mass were determined using a cylindrical model as previously described (Barouch et al. (2003)).

Q: Which results are given for C[C@H](O)[C@H](O)[C@H]1CNc2nc(N)[nH]c(=O)c2N1 [BH4, tetrahydrobiopterin]?
A: change in fractional shortening (WT-TAC/BH4, 3 weeks of TAC): −1.8±3.0%; change in fractional shortening (β3−/− TAC/BH4, 3 weeks of TAC): −0.4±0.2%; increase in calculated LV mass (β3−/− TAC/BH4, 3 weeks of TAC): +15.0±6.8%
